Assay results from patent US20240082128A1, “COMPOSITION FOR USE IN DEGRADATION OF BIOFILM OR PREVENTION OF BIOFILM FORMATION” (Pharmiva AB, priority 2021, published 2024).
“Also recorded” adds a separate entry of the source.

Legend:
[1] = system: Gardnerella vaginalis (ATCC 14018) biofilm; assay: Biofilm biomass removal, crystal violet staining assay; format: cell-based; conditions: G. vaginalis
Protocol: (§1) Gardnerella vaginalis (ATCC® 14018™) and Candida albicans (ATCC® 90028™) were grown on microtiter plates for 48 h at 37° C.±2° C. before being rinsed with PBS to remove planktonic cells. Thereafter the biofilms of the two microorganisms were exposed to the bulk cream and its components (as well as clinical comparators Metronidazole gel and Monistat 7) for 24 h at 37° C.±2° C. The efficacy of formulations in removing biofilm biomass of G. vaginalis and C. albicans was assessed using a crystal violet staining assay and the efficacy of formulations to decrease biofilm viability of G. vaginalis and C. albicans was assessed by plate count method.

[2] = system: Candida albicans (ATCC 90028) biofilm; assay: as above; format: cell-based; conditions: C. albicans
Protocol: as §1

[3] = system: Gardnerella vaginalis (ATCC 14018) biofilm; assay: Biofilm viability, plate count method; format: cell-based; conditions: G. vaginalis
Protocol: as §1

[4] = system: Candida albicans (ATCC 90028) biofilm; assay: Biofilm viability, plate count method; format: cell-based; conditions: C. albicans; 48 h biofilm exposed 24 h at 37° C.; mean ± SD
Protocol: as §1

Lactobacillus = conditions: used for treatment of bacterial vaginosis; cited from earlier work
Gardnerella vaginalis = conditions: cited from earlier work
Candida = conditions: cited from earlier work
microorganisms = conditions: 5 nM hydrogen peroxide (endogenous stress); cited from earlier work
biofilm = conditions: for one hour; cited from earlier work
[5] = Viscosity of polymer gel used as biofilm extracellular matrix proxi (degradation); conditions: 10 g formulation added to gel, viscosity up to 24 hours
Protocol: Three different gels were used in the study reported in Example 2 below: 2% natrosol gel, 2% alginate gel and 6% pectin gel. FeSO4 (10 mM) was added to the gels during manufacturing and acts as a catalysator and by mimic oxidation potential in biological fluids.
The alginate and Natrosol gel were manufactured by adding sodium Alginate/Natrosol to the water solution containing FeSO4, during stirring. The pectin gel was manufactured by heating the water to 80° C. and add pectin as well as FeSO4 during stirring. After manufacture, 6 glass vials (60 mL) were filled with 40 mL of the gel.
In general, biofilms consist of polymers consisting of polysaccharides, most commonly alginates, extracellular proteins, DNA and small amounts of surfactants and lipid. In this experiment, commercially available polymers were used as proxi (i.e. a measurement of one physical quantity (polymer) as an indicator of the value of another (biofilm)) to model the extracellular matrix of biofilm. […]
For each test, following method was used: First, viscosity of the pure gel was measured. […] Viscosity was measured immediately before addition of the formulation or composition, immediately after addition of the formulation or composition, 10 min, 1 hour and 24 hours addition of the formulation or composition. […]

[6] = 48 h biofilm exposed 24 h at 37° C.
[7] = 48 h biofilm exposed 24 h at 37° C., mean ± SD, n = 3

OO [0.3% H2O2 aq. sol., hydrogen peroxide]
Removal of biofilm biomass (in words) ([1]; 24 hours incubation, FIG. 3B, listed as 0.3% H2O2 solution): efficiently diminish the biofilm biomass; also recorded: efficiently remove biomass | Biofilm forming potential [1, 6]: Low/no | Biofilm biomass, optical density at 570 nm [1, 7]: 0.27 ± 0.002 | Removal of biofilm biomass (in words) ([2]; 24 hours incubation, FIG. 3A): efficiently remove biomass | Biofilm forming potential [2, 6]: Medium | Biofilm biomass, optical density at 570 nm [2, 7]: 0.46 ± 0.11 | Biofilm viability ([3]; 48 h biofilm exposed 24 h at 37° C., mean ± SD): 2.47 ± 0.119 Log10 CFU/mL | Decrease of biofilm viability (in words) ([3]; FIG. 4B): efficiently decrease the viability | Biofilm viability [4]: 2.90 ± 0.130 Log10 CFU/mL

CCCCCCCCCCCC(=O)OCC(O)CO (stereo not shown) [glycerol monolaurate]
Influence on Lactobacillus count (Lactobacillus): does not influence Lactobacillus count | Inhibitory effect (Gardnerella vaginalis): inhibitory effect | Inhibitory effect (Candida): inhibitory effect

OO [hydrogen peroxide]
Effect on biofilm formation (microorganisms): biofilm formation was promoted | Concentration needed as sole agent to reduce the amount of biofilm by 85% (biofilm): 0.5 % w/w

lactic acid [0.3% lactic acid solution with 0.7% NaOH]
Decrease in viscosity of polymer gel with time (polymer degradation) ([5]; Alginate gel, FIGS. 1B, 2B): viscosity decrease was observed over time | Decrease in viscosity of polymer gel with time (polymer degradation) ([5]; Natrosol gel, FIGS. 1A, 2A): viscosity decrease was observed over time
